Experimental data: paper PMC11062899, “De novo development of small cyclic peptides that are orally bioavailable” (Nature Chemical Biology, 2023)
“And” between values parts separate entries of the source, which are not always exact repeats. Identical values can stand only once. Like-named read-outs stand apart in the source and are kept apart here.

How the values were obtained:
[1] = target: T1, rat α-thrombin (Rattus norvegicus, UniProt P18292); assay: Protease inhibition, Ki for rat α-thrombin (fluorogenic substrate Z-Gly-Gly-Arg-AMC); format: biochemical; conditions: for Slope normalized to DMSO (proteolytic substrate cleavage over time) / Rat alpha thrombin inhibition, slope normalized to DMSO: replicates R1-R3
T1 construct: rat α-thrombin (Molecular Innovations) were used at final concentrations of 2 nM and 3 nM; purchased Molecular Innovations
In short: (§1)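 Inhibition was measured as AMC fluorescence from 50 μM substrate, monitored for 30 min at 25 °C, relative to a peptide-free control. Human and rat enzymes were present at 2 nM and 3 nM final, respectively, in 50 mM Tris-HCl pH 7.4, 150 mM NaCl, 10 mM MgCl2, 1 mM CaCl2. Ki derives from fitted IC50 via Cheng–Prusoff.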

[2] = target: human α-thrombin (Homo sapiens, UniProt P00734); assay: Protease inhibition, Ki for human α-thrombin (fluorogenic substrate Z-Gly-Gly-Arg-AMC); format: biochemical; conditions: for Human alpha thrombin inhibition, slope normalized to DMSO: replicates R1-R3
In short: as §1

[3] = Passive artificial membrane permeability (PAMPA)
[4] = target: T2, porcine pepsin (Sus scrofa, UniProt P00791); assay: Peptide stability in simulated gastric fluid (SGF); format: in vitro ADME; set-up: remaining at 8 h: dose or concentration left out as unconfirmed; conditions: for remaining at 8 h: pH 1.2
T2 construct: 0.32 g of porcine pepsin (Sigma-Aldrich, P7125) was dissolved under gentle agitation; purchased Sigma-Aldrich P7125
T2 sequence (P00791 60-385): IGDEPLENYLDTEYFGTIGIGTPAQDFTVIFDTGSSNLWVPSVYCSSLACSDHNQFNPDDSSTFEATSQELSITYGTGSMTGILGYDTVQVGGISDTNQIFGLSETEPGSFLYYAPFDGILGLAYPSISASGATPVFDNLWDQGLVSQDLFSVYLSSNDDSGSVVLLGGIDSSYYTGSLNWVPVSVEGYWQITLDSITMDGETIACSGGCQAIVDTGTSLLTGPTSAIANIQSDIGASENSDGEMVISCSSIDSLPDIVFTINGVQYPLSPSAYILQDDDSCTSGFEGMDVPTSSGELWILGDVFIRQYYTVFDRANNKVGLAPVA
In short: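 Peptide from a 1 mM DMSO stock was added to fluid pre-warmed at 37 °C. SGF was pH 1.2 NaCl with porcine pepsin (0.32 g per 100 ml), and SIF was pH 6.8 potassium phosphate with porcine pancreatin (1 g per 100 ml). Supernatant peptide was quantified by LC–MS, with residual expressed as T1/T0.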

[5] = Metabolic stability in rat liver microsomes (RLMs); conditions: rat, microsomes
[6] = peptide 1.33E+02 uM, slope of proteolytic substrate cleavage over time

O=C1C[C@H]2CCCN2C(=O)[C@H](Cc2ccccc2)NC(=O)[C@@H](NC(=O)c2ccc(Cl)s2)CSCCS(=O)(=O)CCSCCN1 [peptide 11]
Ki ([1]; average of R1-R3, read-out: Ki Average): 0.0368 µM | Slope normalized to DMSO (proteolytic substrate cleavage over time) ([1]; peptide 1.02E-03 uM): 94.9 and 90.5 and 126.3 | Slope normalized to DMSO (proteolytic substrate cleavage over time) ([1]; peptide 1.04E+00 uM): 9.4 and 10.0 and 7.6 | Slope normalized to DMSO (proteolytic substrate cleavage over time) ([1]; peptide 1.27E-04 uM): 95.1 and 96.6 and 96.3 | Slope normalized to DMSO (proteolytic substrate cleavage over time) ([1]; peptide 1.30E-01 uM): 36.1 and 35.6 and 32.6 | Rat alpha thrombin inhibition, slope normalized to DMSO [1, 6]: 7.9 and 5.3 and 6.2 | Slope normalized to DMSO (proteolytic substrate cleavage over time) ([1]; peptide 1.63E-02 uM): 78.2 and 76.9 and 78.3 | Rat alpha thrombin inhibition, slope normalized to DMSO ([1]; peptide 1.67E+01 uM): 4.9 and 5.1 and 4.0 | Slope normalized to DMSO (proteolytic substrate cleavage over time) ([1]; peptide 2.03E-03 uM): 89.6 and 92.6 and 90.5 | Rat alpha thrombin inhibition, slope normalized to DMSO ([1]; peptide 2.08E+00 uM): 5.8 and 4.5 and 4.3 | Slope normalized to DMSO (proteolytic substrate cleavage over time) ([1]; peptide 2.54E-04 uM): 95.9 and 93.5 and 98.7 | Slope normalized to DMSO (proteolytic substrate cleavage over time) ([1]; peptide 2.60E-01 uM): 24.9 and 24.5 and 24.7 | Slope normalized to DMSO (proteolytic substrate cleavage over time) ([1]; peptide 3.18E-05 uM): 97.8 and 96.7 and 99.3 | Slope normalized to DMSO (proteolytic substrate cleavage over time) ([1]; peptide 3.26E-02 uM): 68.3 and 65.8 and 66.5 | Rat alpha thrombin inhibition, slope normalized to DMSO ([1]; peptide 3.33E+01 uM): 4.3 and 4.0 and 4.9 | Slope normalized to DMSO (proteolytic substrate cleavage over time) ([1]; peptide 4.07E-03 uM): 90.1 and 88.8 and 91.4 | Rat alpha thrombin inhibition, slope normalized to DMSO ([1]; peptide 4.17E+00 uM): 4.1 and 2.6 and 2.8 | Slope normalized to DMSO (proteolytic substrate cleavage over time) ([1]; peptide 5.09E-04 uM): 95.0 and 94.4 and 95.5 | Slope normalized to DMSO (proteolytic substrate cleavage over time) ([1]; peptide 5.21E-01 uM): 15.5 and 14.5 | Slope normalized to DMSO (proteolytic substrate cleavage over time) ([1]; peptide 6.36E-05 uM): 97.1 and 98.7 and 90.6 | Slope normalized to DMSO (proteolytic substrate cleavage over time) ([1]; peptide 6.51E-02 uM): 52.7 and 50.7 and 50.5 | Rat alpha thrombin inhibition, slope normalized to DMSO ([1]; peptide 6.67E+01 uM): 3.6 and 3.0 and 1.8 | Slope normalized to DMSO (proteolytic substrate cleavage over time) ([1]; peptide 8.14E-03 uM): 84.4 | Rat alpha thrombin inhibition, slope normalized to DMSO ([1]; peptide 8.33E+00 uM): 4.9 (2×) and 4.3 | IC50 ([1]; single replicates R1-R3, read-out: IC50): 0.0717 µM and 0.0683 µM and 0.0597 µM | Ki ([1]; single replicates R1-R3, read-out: Ki): 39.7 nM and 37.8 nM and 33 nM (2×) | IC50 ([2]; human alpha thrombin, individual replicates R1-R3, read-out: IC50): 0.122 µM and 0.107 µM and 0.104 µM | Ki ([2]; human alpha thrombin, individual replicates R1-R3, read-out: Ki): 94.1 nM and 82.8 nM and 80.4 nM | Ki ([2]; human alpha thrombin, average of R1-R3, read-out: Ki Average): 85.8 nM | Human alpha thrombin inhibition, slope normalized to DMSO ([2]; peptide 1.02E-03 uM): 92.7 and 96.3 and 98.1 | Human alpha thrombin inhibition, slope normalized to DMSO ([2]; peptide 1.04E+00 uM): 14.1 and 15.4 and 19.5 | Human alpha thrombin inhibition, slope normalized to DMSO ([2]; peptide 1.27E-04 uM): 98.4 and 100.1 and 101.4 | Human alpha thrombin inhibition, slope normalized to DMSO ([2]; peptide 1.30E-01 uM): 51.2 and 52.1 and 48.8 | Human alpha thrombin inhibition, slope normalized to DMSO [2, 6]: 8.1 and 8.7 and 9.0 | Human alpha thrombin inhibition, slope normalized to DMSO ([2]; peptide 1.63E-02 uM): 87.3 and 78.8 and 85.1 | Human alpha thrombin inhibition, slope normalized to DMSO ([2]; peptide 1.67E+01 uM): 9.8 and 9.6 and 8.8 | Human alpha thrombin inhibition, slope normalized to DMSO ([2]; peptide 2.03E-03 uM): 100.0 and 90.9 and 98.1 | Human alpha thrombin inhibition, slope normalized to DMSO ([2]; peptide 2.08E+00 uM): 10.6 and 11.3 and 7.9 | Human alpha thrombin inhibition, slope normalized to DMSO ([2]; peptide 2.54E-04 uM): 99.0 and 98.6 and 98.3 | Human alpha thrombin inhibition, slope normalized to DMSO ([2]; peptide 2.60E-01 uM): 38.3 and 36.0 and 36.6 | Human alpha thrombin inhibition, slope normalized to DMSO ([2]; peptide 3.18E-05 uM): 100.0 and 103.6 and 101.9 | Human alpha thrombin inhibition, slope normalized to DMSO ([2]; peptide 3.26E-02 uM): 77.4 and 76.3 | Human alpha thrombin inhibition, slope normalized to DMSO ([2]; peptide 3.33E+01 uM): 8.8 and 8.2 and 6.8 | Human alpha thrombin inhibition, slope normalized to DMSO ([2]; peptide 4.07E-03 uM): 95.6 and 92.2 and 94.3 | Human alpha thrombin inhibition, slope normalized to DMSO ([2]; peptide 4.17E+00 uM): -2.0 and 6.9 and 2.0 | Human alpha thrombin inhibition, slope normalized to DMSO ([2]; peptide 5.09E-04 uM): 98.9 and 97.6 and 107.7 | Human alpha thrombin inhibition, slope normalized to DMSO ([2]; peptide 5.21E-01 uM): 24.9 and 24.6 and 25.0 | Human alpha thrombin inhibition, slope normalized to DMSO ([2]; peptide 6.36E-05 uM): 101.3 and 99.0 and 104.0 | Human alpha thrombin inhibition, slope normalized to DMSO ([2]; peptide 6.51E-02 uM): 65.9 and 65.1 and 64.6 | Human alpha thrombin inhibition, slope normalized to DMSO ([2]; peptide 6.67E+01 uM): 8.2 and 10.4 and 4.8 | Human alpha thrombin inhibition, slope normalized to DMSO ([2]; peptide 8.14E-03 uM): 92.7 and 91.1 and 94.4 | Human alpha thrombin inhibition, slope normalized to DMSO ([2]; peptide 8.33E+00 uM): 14.8 and 11.1 | Ki ([2]; purified peptide, mean and s.d. of three measurements, read-out: Ki human α-thrombin): 82 ± 10 nM | Ki ([2]; single replicates R1-R3, read-out: Ki (nM), human alpha thrombin inhibition): 94.1 nM and 82.8 nM and 80.4 nM | PAMPA permeability: % permeability ([3]; 50 μM, 12–18 h, acceptor concentration relative to equilibrium): 1.23 ± 0.72% | Papp at 50 μM ([3]; PAMPA, pH 7.4): 0.0708 ×10⁻⁶ cm/s | Permeability% Average ([3]; PAMPA, average of R1-R3): 1.2% | Permeability% R1 ([3]; PAMPA, replicate R1, TIC of top well sample relative to sample at theoretical equilibrium): 0.47% | Permeability% R3 ([3]; PAMPA, replicate R3, TIC of top well sample relative to sample at theoretical equilibrium): 1.91% | SGF stability, Residual peptide ([4]; after 8 h vs 0 h (TIC), single replicates R1-R3): 36.24 and 43.40 and 29.72 | remaining at 8 h ([4]; pig, simulated gastric fluid (SGF, USP) with porcine pepsin, after 8 h vs 0 h (TIC), average of R1-R3, read-out: SGF stability, Residual peptide Average): 36.5% | remaining at 8 h ([4]; simulated gi fluid, 8 h, 37 °C, read-out: Proteolytic stability: SGF (8 h) % remaining): 36 ± 7% | microsomal CLint ([5]; CL (ul/min/mg protein) R1, RLM CL, replicate R1): 92.9 µL/min/mg | microsomal CLint ([5]; CL (ul/min/mg protein) R2, RLM CL, replicate R2): 68.2 µL/min/mg | microsomal CLint ([5]; CL (ul/min/mg protein) R3, RLM CL, replicate R3): 83.9 µL/min/mg | half-life ([5]; Half Life (min) R1, RLM metabolic stability, replicate R1, 0-60 min): 14.9 min | half-life ([5]; Half Life (min) R2, RLM metabolic stability, replicate R2, 0-60 min): 20.3 min | half-life ([5]; Half Life (min) R3, RLM metabolic stability, replicate R3, 0-60 min): 16.5 min | half-life ([5]; Metabolic stability: Half life T1/2 (min), RLMs, mean and SD, three measurements): 17.3 ± 2.3 min | microsomal CLint ([5]; Metabolic stability: RLM CL (ul/min/mg), RLMs, mean and SD, three measurements): 82 ± 10 µL/min/mg | microsomal CLint ([5]; Metabolic stability: RLM CL Average, summary table, average of R1-R3): 81.7 µL/min/mg | microsomal CLint ([5]; Metabolic stability: RLM CL R1, summary table, rounded, replicate R1): 92.9 µL/min/mg | microsomal CLint ([5]; Metabolic stability: RLM CL R2, summary table, rounded, replicate R2): 68.2 µL/min/mg | microsomal CLint ([5]; Metabolic stability: RLM CL R3, summary table, rounded, replicate R3): 83.9 µL/min/mg
